Results taken from the supplement of paper PMC10307832.

Columns and labels:
Assay in all cases: relative viability (nuclei count vs DMSO), 5 days (fraction); higher = more cells survive
Metformin + Navitoclax = compound: CN(C)C(=N)NC(=N)N [Metformin] + CC1(C)CCC(c2ccc(Cl)cc2)=C(CN2CCN(c3ccc(C(=O)NS(=O)(=O)c4ccc(N[C@H](CCN5CCOCC5)CSc5ccccc5)c(S(=O)(=O)C(F)(F)F)c4)cc3)CC2)C1 [Navitoclax] (partner 0.5 µM)
Method in brief: (§1)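 Relative viability is defined as nuclei in treated wells over nuclei in vehicle wells. Duplicate plates were run and medians reported. Lung cancer cell lines in 1536-well plates were dosed by pin tool one day after seeding, with one drug or with a fixed anchor-drug dose plus five library-drug doses (not always all listed) in √10 steps, and nuclei were counted after 5 days.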

Apatinib + Phenformin = compound: N#CC1(c2ccc(NC(=O)c3cccnc3NCc3ccncc3)cc2)CCCC1 [Apatinib] + N=C(N)NC(=N)NCCc1ccccc1 [Phenformin] (partner 250 µM)
Method in brief: as §1

Metformin = compound: CN(C)C(=N)NC(=N)N [Metformin]
Method in brief: (§2)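 Only plates meeting two conditions passed: control CV below 25% and at least one doubling. Lung cancer cell lines, kept overnight at 37 °C in 1536-well plates, were pinned with five library-drug doses (not always all listed) √10 apart on vehicle-anchored plates and grown 5 days without medium change. A one-step fix, permeabilisation and Hoechst stain preceded 4× imaging and MetaXpress nuclear counting. Viability equals treated-well nuclei divided by vehicle-well nuclei, as the median over plates.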

Apatinib = compound: N#CC1(c2ccc(NC(=O)c3cccnc3NCc3ccncc3)cc2)CCCC1 [Apatinib]
Method in brief: as §2

Cell Line | relative viability (Metformin + Navitoclax; first compound 10 µM) | relative viability (Metformin + Navitoclax; first compound 31.62 µM) | relative viability (Metformin + Navitoclax; first compound 100 µM) | relative viability (Metformin + Navitoclax; first compound 316.23 µM) | relative viability (Metformin + Navitoclax; first compound 1000 µM) | relative viability (Apatinib + Phenformin; first compound 0.08 µM) | relative viability (Apatinib + Phenformin; first compound 0.253 µM) | relative viability (Apatinib + Phenformin; first compound 0.8 µM) | relative viability (Apatinib + Phenformin; first compound 2.53 µM) | relative viability (Apatinib + Phenformin; first compound 8 µM) | relative viability (Metformin; 10 µM) | relative viability (Metformin; 31.62 µM) | relative viability (Metformin; 100 µM) | relative viability (Metformin; 316.23 µM) | relative viability (Metformin; 1000 µM) | relative viability (Apatinib; 0.08 µM) | relative viability (Apatinib; 0.253 µM) | relative viability (Apatinib; 0.8 µM) | relative viability (Apatinib; 2.53 µM) | relative viability (Apatinib; 8 µM)
NCI-H1437 | 1.08 | 1.08 | 1.12 | 0.979 | 1.08 | 0.354 | 0.283 | 0.278 | 0.252 | 0.251 | 1.09 | 1.16 | 1.01 | 1.04 | 1.08 | 0.949 | 0.995 | 0.996 | 0.83 | 0.799
NCI-H23 | 0.82 | 0.902 | 0.805 | 0.839 | 0.993 | 0.851 | 0.733 | 0.735 | 0.717 | 0.705 | 0.919 | 1.17 | 0.969 | 0.997 | 1.13 | 1.08 | 0.977 | 0.912 | 0.937 | 0.88
NCI-H647 | 0.869 | 1.13 | 1.44 | 1.12 | 0.763 | 0.561 | 0.64 | 0.427 | 0.544 | 0.319 | 0.978 | 1.05 | 1.05 | 0.813 | 0.939 | 1.05 | 1.07 | 0.993 | 0.837 | 0.852
NCI-H2009 | 1.19 | 1.16 | 1.21 | 1.17 | 1.07 | 0.494 | 0.497 | 0.382 | 0.264 | 0.219 | 0.889 | 1.1 | 1.04 | 1.02 | 1.03 | 1.06 | 0.979 | 0.968 | 0.762 | 0.618
HCC-78 | 0.994 | 1.17 | 1.01 | 1 | 1.06 | 0.644 | 0.607 | 0.691 | 0.605 | 0.618 | 0.857 | 1.03 | 1.27 | 0.968 | 1.14 | 0.967 | 0.847 | 1.01 | 0.803 | 0.858
LCLC-97TM1 | 0.44 | 0.339 | 0.547 | 0.276 | 0.486 | 0.411 | 0.409 | 0.424 | 0.404 | 0.37 | 0.725 | 0.978 | 0.988 | 0.843 | 1.25 | 0.792 | 0.882 | 1.02 | 0.785 | 0.662
HOP-62 | 0.922 | 0.845 | 1.04 | 0.989 | 0.986 | 0.646 | 0.646 | 0.638 | 0.625 | 0.577 | 0.856 | 1.02 | 1.02 | 0.917 | 1.03 | 0.964 | 0.924 | 0.985 | 0.859 | 0.922
LC-2-ad |  | 0.26 | 0.167 | 0.18 | 0.311 | 0.539 | 0.579 | 0.517 | 0.539 | 0.582 |  | 1.01 | 0.943 | 0.8 | 0.767 | 0.931 | 0.991 | 0.911 | 0.856 | 0.819
NCI-H2126 | 0.788 | 0.834 | 0.842 | 0.771 | 0.787 | 0.564 | 0.501 | 0.512 | 0.521 | 0.523 | 0.905 | 0.992 | 0.981 | 0.932 | 1.03 | 0.975 | 0.904 | 0.969 | 0.918 | 1.02
NCI-H1975 | 1.23 | 1.32 | 1.28 | 1 | 1.23 | 0.425 | 0.387 | 0.382 | 0.389 | 0.433 | 1.06 | 1.16 | 1.09 | 1.12 | 1.21 | 0.97 | 0.981 | 0.91 | 0.844 | 0.943
NCI-H1734 | 0.882 | 0.863 | 0.908 | 0.822 | 0.905 | 0.401 | 0.481 | 0.381 | 0.342 | 0.353 | 1.01 | 1.03 | 1.04 | 1.01 | 1.02 | 1.18 | 0.987 | 0.991 | 0.909 | 0.845
NCI-H727 | 0.503 | 0.514 | 0.496 | 0.512 | 0.535 | 0.566 | 0.542 | 0.528 | 0.539 | 0.514 | 1.04 | 1.06 | 1.13 | 0.688 | 1.16 | 1.08 | 0.879 | 0.937 | 0.77 | 0.843
LU99A | 0.693 | 0.743 | 0.677 | 0.814 | 0.749 | 0.914 | 1.01 | 0.816 | 0.799 | 0.813 | 0.946 | 0.894 | 0.785 | 0.792 | 0.915 | 0.923 | 1.11 | 0.95 | 0.925 | 0.83
LXF-289 | 0.912 | 0.918 | 0.939 | 0.914 | 0.901 | 0.543 | 0.527 | 0.519 | 0.496 | 0.468 | 0.872 | 0.927 | 0.95 | 0.946 | 0.99 | 0.989 | 0.976 | 0.981 | 0.943 | 0.951
UMC-11 | 0.328 | 0.347 | 0.346 | 0.363 | 0.384 | 0.333 | 0.318 | 0.287 | 0.293 | 0.266 | 0.961 | 1.02 | 1.06 | 0.96 | 0.992 | 1.06 | 0.866 | 0.942 | 0.899 | 0.885
NCI-H1650 | 1.16 | 1.34 | 1.46 | 1.37 | 1.1 |  | 0.503 | 0.35 | 0.35 | 0.318 | 1.09 | 0.865 | 1.17 | 1.03 | 0.931 | 0.904 | 1.01 | 0.86 | 0.832 | 0.824
NCI-H2405 | 0.869 | 1.26 | 0.988 | 1.07 | 1.09 | 0.392 | 0.392 | 0.394 | 0.33 | 0.344 | 0.756 | 1.04 | 0.91 | 0.971 | 0.931 | 0.954 | 1.04 | 1.07 | 0.909 | 0.955
